{"source": "patent US11542304B2", "about": "“Multimeric bicyclic peptide ligands” (BicycleTx Limited, priority 2018, dated 2023)", "key": {"CD137 [1]": {"target": "T1, CD137 (Homo sapiens, UniProt Q07011)", "T1 sequence (Q07011 24-255)": "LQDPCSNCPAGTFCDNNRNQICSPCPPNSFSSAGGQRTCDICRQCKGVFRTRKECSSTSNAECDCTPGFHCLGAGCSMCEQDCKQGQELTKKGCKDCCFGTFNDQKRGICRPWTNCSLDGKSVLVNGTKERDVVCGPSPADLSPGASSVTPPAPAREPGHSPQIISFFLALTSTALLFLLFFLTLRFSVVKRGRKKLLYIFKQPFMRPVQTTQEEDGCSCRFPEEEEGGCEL", "test": "CD137 reporter cell activity washout assay", "format": "cell-based", "set-up": "host or cells: Jurkat cells", "conditions": "10 nM, exposure 30, 60 or 120 minutes, total 6 hours; FIG. 13", "experimental": "Jurkat cells engineered to overexpress CD137 and express a luciferase gene under the NF-κB promoter were purchased from Promega. The reporter cells were incubated with 10 nM of CD137 agonists for the indicated times at 37° C. in RPMI1640 media with 1% FBS. After either 30, 60, or 120 minutes, cells were washed in an excess of culture media and resuspended in 75 μL of fresh media. A no washout condition was also included. All washout conditions were performed in duplicate. Cells then continued to incubate for a total of 6 hours (an additional 5.5, 5, or 4 hours respective to exposure times). After incubation, 75 μL of Bio-Glo reagent (Promega) was added to each well and allowed to equilibrate for 10 minutes at room temperature. Luminescence was read on the Clariostar plate reader (BMG LabTech). Fold induction was calculated by dividing the luminescence signal by background wells (reporter cells with no agonist added). The percent of the maximum fold induction was calculated by dividing the fold induction of the washout time by the fold induction of the no washout condition and multiplying by 100."}, "[2]": {"tested_on": "Pan T-cells (isolated from human PBMCs)", "test": "T-cell cytokine release assay", "format": "cell-based", "conditions": "anti-CD3 stimulated T cells, 48 hours; FIG. 14", "experimental": "Healthy human buffy coat was purchased from the Sylvan N. Goldman Oklahoma Blood Institute and shipped fresh. Peripheral blood mononuclear cells (PBMCs) were isolated by Ficoll density gradient centrifugation. Red blood cells were lysed with ACK (Ammonium-Chloride-Potassium) lysis buffer. Pan T-cells were then isolated from total PBMCs using negative magnetic bead selection (Miltenyi MACS human Pan-T cell isolation kit). Pan T-cells were then plated on anti-CD3 coated 96-well plates (0.5 μg/mL) in culture media (RPMI1640 with 10% FBS) plus or minus compounds. Supernatant from cultures was collected after 24 and 48 hours. Cytokine [i.e., interleukin-2 (IL-2), interferon gamma (IFNγ)] release in supernatant was measured by HTRF assay (CisBio) according to the kit's instructions. HTRF assay plates were read on a Clariostar plate reader (BMG Labtech) at 665 nm and 620 nm. Data was analyzed and extrapolated to a standard curve according to the HTRF kit instruction in Prism and Excel. Cytokine release fold change was calculated by dividing the pg/mL of cytokine detected by background cytokine released (CD3 stimulation alone). Data was graphed in Prism as the mean of replicates with standard deviation error bars."}, "MC38 syngeneic tumors": {"tested_on": "MC38 syngeneic tumors", "test": "In vivo efficacy in MC38 syngeneic tumors in C57BL/6J B-h4-1BB humanized mice", "experimental": "The MC38 murine colon carcinoma cell line was purchased from Shunran Shanghai Biological Technology Co., Ltd. The cells will be maintained in vitro as monolayer culture in Dulbecco's Modified Eagle's medium (DMEM) supplemented with 10% heat inactivated fetal calf serum, 100 U/mL penicillin and 100 μg/mL streptomycin at 37° C. in an atmosphere of 5% CO2. The tumor cells will be routinely subcultured twice weekly by trypsin-EDTA treatment. Cells growing in an exponential growth phase will be harvested and counted for tumor inoculation. 6-8 week old female C57BL/6J B-h4-1BB humanized mice were subcutaneously injected (in the flank) with MC38 tumor cells (5×10^5) with 0.1 mL PBS for tumor development. Tumor-bearing animals were randomly enrolled into six study groups when the mean tumor size reached approximately 113 mm^3 (Study 1) or 107 mm^3 (Study 2). The test and positive control articles were administrated to the tumor-bearing mice according to predetermined regimens as shown below.\nTest articles were formulated in aqueous vehicle (25 mM Histidine, 10% sucrose pH=7) and administered intravenously or intraperitoneally. CD137 monoclonal antibody agonist was administered by intraperitoneal injection in 0.9% saline.\nTumor volume was measured three times a week in two dimensions using a caliper, and the volume was expressed in mm3 using the formula: V=0.5a×b2 where a and b were the long and short diameters of the tumor, respectively. Results are represented by mean and the standard deviation (Mean±SD).\nIn study 2, mice were sacrificed 21 days after treatment initiation and tumors were harvested for T-cell analysis by flow cytometry. Tumor were cut into small pieces and filtered through a 70 micrometer filter. Lymphocytes were isolated using Histopaque 1083 and resuspended in RPMI 1640 supplemented with 10% fetal bovine serum. Lymphocytes were stained with a cell viability dye (Zombie NIR, Biolegend, #423106) and a panel of antibodies including anti-mouse CD45 (Biolegend, #103138), anti-mouse CD3 (Biolegend, #100328), anti-mouse CD4 (Biolegend, #100438), anti-mouse CD8 (Biolegend, #100759). Stained cells were analysed by Attune N×T Flow Cytometer. T-cell results are expressed as % of CD3+ cells among CD45+ cells. CD8+ T-cell results are expressed as % of CD8+ cells among CD45+CD3+ cells. CD4+ T-cell results are expressed as % of CD4+ cells among CD45+CD3+ cells. Results are represented by mean and the standard deviation (Mean±SD) and the individual values.\nStatistical analysis: Data was analyzed using 2way ANOVA or ordinary One-way ANOVA with Dunnett's test for multiple comparisons, and P<0.05 was considered to be statistically significant. Both statistical analysis and biological observations are taken into consideration. ***p<0.001, **p<0.01, *p<0.05."}, "CD137 [3]": {"target": "T1, CD137", "test": "CD137 Promega reporter cell activity assay (NF-κB luciferase in Jurkat cells)"}}}
{"smiles": "CCCC[C@@H]1NC(=O)[C@H](Cc2ccc(O)cc2)NC(=O)[C@@H]2CCCN2C(=O)[C@H](CC(=O)O)NC(=O)[C@H](C)NC(=O)[C@H](Cc2ccccc2)NC(=O)[C@@H]2CSCCC(=O)N3CN(CN(C3)C(=O)CCSC[C@@H](C(=O)N[C@@H](C)C(N)=O)NC1=O)C(=O)CCSC[C@H](NC(C)=O)C(=O)N[C@@H](CC(C)(C)C)C(=O)N1CCC[C@H]1C(=O)N[C@@H](CCCCNC(=O)CCc1cn(CCOCCOCCOCCOCCOCCOCCOCCOCCOCCOCCOCCOCCOCCOCCOCCOCCOCCOCCOCCOCCOCCOCCOCCNC(=O)CCOCC(COCCC(=O)NCCOCCOCCOCCOCCOCCOCCOCCOCCOCCOCCOCCOCCOCCOCCOCCOCCOCCOCCOCCOCCOCCOCCOCCn3cc(CCC(=O)NCCCC[C@@H]4NC(=O)[C@@H]5CCCN5C(=O)[C@H](CC(C)(C)C)NC(=O)[C@@H](NC(C)=O)CSCCC(=O)N5CN6CN(C5)C(=O)CCSC[C@H](NC(=O)[C@H](Cc5ccc(O)cc5)NC(=O)[C@@H]5CCCN5C(=O)[C@@H](C)NC4=O)C(=O)N[C@@H](Cc4ccccc4)C(=O)N[C@@H](C)C(=O)N[C@@H](CC(=O)O)C(=O)N4CCC[C@H]4C(=O)N[C@@H](Cc4ccc(O)cc4)C(=O)N[C@@H](CCCC)C(=O)N[C@H](C(=O)N[C@@H](C)C(N)=O)CSCCC6=O)nn3)(COCCC(=O)NCCOCCOCCOCCOCCOCCOCCOCCOCCOCCOCCOCCOCCOCCOCCOCCOCCOCCOCCOCCOCCOCCOCCOCCn3cc(CCC(=O)NCCCC[C@@H]4NC(=O)[C@@H]5CCCN5C(=O)[C@H](CC(C)(C)C)NC(=O)[C@@H](NC(C)=O)CSCCC(=O)N5CN6CN(C5)C(=O)CCSC[C@H](NC(=O)[C@H](Cc5ccc(O)cc5)NC(=O)[C@@H]5CCCN5C(=O)[C@@H](C)NC4=O)C(=O)N[C@@H](Cc4ccccc4)C(=O)N[C@@H](C)C(=O)N[C@@H](CC(=O)O)C(=O)N4CCC[C@H]4C(=O)N[C@@H](Cc4ccc(O)cc4)C(=O)N[C@@H](CCCC)C(=O)N[C@H](C(=O)N[C@@H](C)C(N)=O)CSCCC6=O)nn3)COCCC(=O)NCCOCCOCCOCCOCCOCCOCCOCCOCCOCCOCCOCCOCCOCCOCCOCCOCCOCCOCCOCCOCCOCCOCCOCCn3cc(CCC(=O)NCCCC[C@@H]4NC(=O)[C@@H]5CCCN5C(=O)[C@H](CC(C)(C)C)NC(=O)[C@@H](NC(C)=O)CSCCC(=O)N5CN6CN(C5)C(=O)CCSC[C@H](NC(=O)[C@H](Cc5ccc(O)cc5)NC(=O)[C@@H]5CCCN5C(=O)[C@@H](C)NC4=O)C(=O)N[C@@H](Cc4ccccc4)C(=O)N[C@@H](C)C(=O)N[C@@H](CC(=O)O)C(=O)N4CCC[C@H]4C(=O)N[C@@H](Cc4ccc(O)cc4)C(=O)N[C@@H](CCCC)C(=O)N[C@H](C(=O)N[C@@H](C)C(N)=O)CSCCC6=O)nn3)nn1)C(=O)N[C@H](C)C(=O)N1CCC[C@H]1C(=O)N[C@@H](Cc1ccc(O)cc1)C(=O)N2", "note": "[BCY8945]", "values": [{"measurement": "cell activity after washout", "setting": "CD137 [1]", "result": "maintains cell activity after washout"}, {"measurement": "pro-inflammatory cytokine (IL-2, IFNγ) secretion by T-cells", "setting": "[2]", "result": "secrete pro-inflammatory cytokines"}, {"measurement": "anti-tumour activity (tumor volume), Study 2", "setting": "MC38 syngeneic tumors; 30 mg/kg QD × 20, FIG. 8", "result": "elicits anti-tumour activity"}, {"measurement": "T-cell percentage in the tumor tissue (% CD3+ among CD45+)", "setting": "MC38 syngeneic tumors; Study 2, 21 days of treatment, compared to CD137 monoclonal antibody agonist, FIG. 9", "result": "elicits a range of increase in T-cell and CD8+ T-cell percentage"}, {"measurement": "CD8+ T-cell percentage in the tumor tissue (% CD8+ among CD45+CD3+)", "setting": "MC38 syngeneic tumors; Study 2, 21 days of treatment, compared to CD137 monoclonal antibody agonist, FIG. 10", "result": "elicits a range of increase in T-cell and CD8+ T-cell percentage"}, {"measurement": "CD4+ T-cell percentage in the tumor tissue (% CD4+ among CD45+CD3+)", "setting": "MC38 syngeneic tumors; Study 2, 21 days of treatment, compared to CD137 monoclonal antibody agonist, FIG. 11", "result": "elicits a range of decease in T-cell percentage"}, {"measurement": "Average Fold EC50 Improvement relative to BCY7845", "setting": "CD137 [3]", "result": 0.13}, {"measurement": "Average Relative Fold Induction relative to BCY7845", "setting": "CD137 [3]; Average fold induction for BCY7845 = 6.3", "result": 1.23}, {"measurement": "CD137 agonism / activation in reporter cells (in words)", "setting": "CD137 [3]; FIGS. 1 to 3 and 15", "result": "activates CD137 on the surface of Jurkat reporter cells"}]}
